# Assay results as given in patent publication US12077524B2, “Crystal of pyrrolidine compound” (MITSUBISHI TANABE PHARMA CORPORATION, priority 2018, dated 2024).
# Structures can show the parent of a compound that is named as a salt. Where two headings read alike, the source gives them in different places.
# Columns and labels:
# Assay type in all cases: physicochemical
# [1] = Chemical stability evaluation (storage 1 week, related substances by HPLC, observation of sample)
# Method: Each sample was stored at 60° C. under a sealed condition and at 60° C. under 75% RH for 1 week, an increase or decrease of related substances after the storage was calculated by high-performance liquid chromatographic method on the basis of the area percentage of each peak. Also, the condition of each sample after the storage was observed.
# [2] = Thermal stability evaluation (TG/DTA); details: for Thermal stability TG: weight change: 10 K/min, nitrogen
# Method: Thermal stability was evaluated by using a thermogravimetry/differential thermal analyzer TG/DTA7200 (SII NanoTechnology Inc.) under the following conditions. • Rate of temperature increase: 10 K/min • Atmosphere: nitrogen 200 mL/min <Hygroscopicity or Deliquescency Evaluation>
# [3] = Hygroscopicity or deliquescency evaluation (moisture adsorption, DVS)
# Method: Hygroscopicity or deliquescency was evaluated as follows by using a moisture adsorption measurement device DVS-1 or DVS-intrinsic (Surface Measurement Systems Limited). Each sample was placed into a cell of which the tare weight had been corrected in advance, and the cell was hung on the precision balance of said device to precisely measure the weight at the start of measurement. The humidity was changed in a stepwise manner, the weight change was recorded with time, and the equilibrium weight was calculated at each humidity. On the basis of the weight of anhydride converted from the amount of water at a dried condition (0% RH) or at the start of measurement observed by an alternative method, the weight change rate at each humidity was calculated.
smiles,measurement,setting,value
"COC[C@H]1CN(C(=O)[C@]2(F)CN(C3CCCC3)C[C@H]2c2ccc(OC)cc2)C[C@@H]1c1ccc(C(F)(F)F)cc1N1CCC(C(=O)O)CC1 [Amorphous of hydrochloride, 1-{2-[(3S,4R)-1-[(3R,4R)-1-cyclopentyl-3-fluoro-4-(4-methoxyphenyl)pyrrolidine-3-carbonyl]-4-(methoxymethyl)pyrrolidin-3-yl]-5-(trifluoromethyl)phenyl}piperidine-4-carboxylic acid]",Chemical stability: condition of sample after the storage,"[1]; 60° C., 75% RH, 1 week",deliquescent
same,Thermal stability TG: weight change,[2]; 30-150° C.,4.8%
same,Deliquescency,[3],deliquescent
same,Hygroscopicity or Deliquescency: Weight change under 90% RH,[3],11.87%
same,Deliquescency,[3]; listed as hydrochloride of the Pyrrolidine compound A,has deliquescency
same,Hygroscopicity or Deliquescency: observation (deliquescent),[3]; under 90% RH,deliquescent
"COC[C@H]1CN(C(=O)[C@]2(F)CN(C3CCCC3)C[C@H]2c2ccc(OC)cc2)C[C@@H]1c1ccc(C(F)(F)F)cc1N1CCC(C(=O)O)CC1 [Crystal of free form, 1-{2-[(3S,4R)-1-[(3R,4R)-1-cyclopentyl-3-fluoro-4-(4-methoxyphenyl)pyrrolidine-3-carbonyl]-4-(methoxymethyl)pyrrolidin-3-yl]-5-(trifluoromethyl)phenyl}piperidine-4-carboxylic acid]",Chemical stability,[1],poor
"COC[C@H]1CN(C(=O)[C@]2(F)CN(C3CCCC3)C[C@H]2c2ccc(OC)cc2)C[C@@H]1c1ccc(C(F)(F)F)cc1N1CCC(C(=O)O)CC1 [Amorphous of free form, 1-{2-[(3S,4R)-1-[(3R,4R)-1-cyclopentyl-3-fluoro-4-(4-methoxyphenyl)pyrrolidine-3-carbonyl]-4-(methoxymethyl)pyrrolidin-3-yl]-5-(trifluoromethyl)phenyl}piperidine-4-carboxylic acid]",Thermal stability TG: weight change,[2]; 30-130° C.,2.2%
same,Hygroscopicity or Deliquescency: Weight change under 90% RH,[3],1.8%
"COC[C@H]1CN(C(=O)[C@]2(F)CN(C3CCCC3)C[C@H]2c2ccc(OC)cc2)C[C@@H]1c1ccc(C(F)(F)F)cc1N1CCC(C(=O)O)CC1 [Present crystal, 1-{2-[(3S,4R)-1-[(3R,4R)-1-cyclopentyl-3-fluoro-4-(4-methoxyphenyl)pyrrolidine-3-carbonyl]-4-(methoxymethyl)pyrrolidin-3-yl]-5-(trifluoromethyl)phenyl}piperidine-4-carboxylic acid]",Thermal stability TG: weight change,[2]; 30-230° C.,No change
same,Weight change on heating,[2]; even at 200° C. or more,did not show a weight change
same,Deliquescency,[3]; listed as Phosphoric acid Form B crystal,not deliquescent
